{"source": "patent US9682928B2", "about": "(NeuroPro Therapeutics, Inc., priority 2009, dated 2017)", "key": {"Male Rj: NMRI mice": {"test_system": "Male Rj: NMRI mice", "experiment": "Formalin paw test (late phase) in the mouse", "type": "in vivo", "experimental": "The method described herein detects analgesic/anti-inflammatory activity, generally used to test compounds for pain relief, in particular diabetic neuropathy or nociceptive neuropathy. See Wheeler-Aceto, et al. (1991) Psychopharmacology 104: 35-44.\nMice were given an intraplantar injection of 5% formalin (25 μl) into the posterior left paw. This treatment induces paw licking in control animals. Mice were briefly observed at 1 minute intervals between 15 and 50 minutes after the injection of formalin and the number of occasions that the mice were observed licking the injected paw was recorded. There were 10 mice per group and the test was performed “blind.”\nThe experiment included 11 groups. Data was analyzed by comparing treated groups with vehicle control using unpaired Mann-Whitney U tests.\nGabapentin (100 mg/kg i.p.) administered under the same experimental conditions, was used as reference substance. The experiment included several groups. Data was analyzed by comparing treated groups with vehicle control using unpaired Mann-Whitney U tests."}, "adult mice (C57/B16)": {"test_system": "adult mice (C57/B16)", "experiment": "Mesial temporal lobe epilepsy model (mice), hippocampal discharges", "type": "in vivo, mouse", "conditions": "50 mg/kg for NTP-2014 and NTP-2026; 150 mg/kg for NTP-2024, NTP-2006, NTP-1007, NTP-1003", "experimental": "Antiepileptic protocol: Up to eight adult mice (C57/B16) are injected with kainate (1 nmol in 50 nl) and are implanted with a bipolar electrode in the dorsal hippocampus using stereotaxic techniques under general anesthesia. […] Drug conditions are counter-balanced, the animals being used as their own controls. Digital EEG recordings are performed in freely moving animals for 20 min pre-injection and 80 min post-injection. The effects of the injected compound are compared versus vehicle injections and reference period (pre-dose). Upon completion of the experiment, standard histological analysis are performed to verify electrode location, cell losses in CA1, CA3 and hilus, as well as dentate gyrus dispersion. Only animals with all characteristics of MTLE are used in data analysis. […] The results below are normalized to the pre-dose condition for each of the treatment group including DMSO and saline vehicle controls. Doses of test article compounds were 50 mg/kg for NTP-2014 and NTP-2026 and 150 mg/kg for NTP-2024, NTP-2006, NTP-1007, and NTP-1003. Therefore the bumetanide, furosemide, piretanide, azosemide, and torsemide esters and amide analogs described herein may be used in therapeutic methods to treat seizures."}, "[1]": {"experiment": "Brain levels in rat following IP administration", "type": "in vivo", "conditions": "NTP-2006 100 mg/kg IP, PBx pretreated"}, "[2]": {"experiment": "Blood levels in rat following IP administration", "type": "in vivo"}, "Na+K+Cl− co-transporter": {"biological_target": "T1, Na+K+Cl− co-transporter (Rattus norvegicus, UniProt E9PTX9)", "T1 construct": "endogenous in cells; host or cells: A7r5 cells", "T1 sequence (E9PTX9 1-1203)": "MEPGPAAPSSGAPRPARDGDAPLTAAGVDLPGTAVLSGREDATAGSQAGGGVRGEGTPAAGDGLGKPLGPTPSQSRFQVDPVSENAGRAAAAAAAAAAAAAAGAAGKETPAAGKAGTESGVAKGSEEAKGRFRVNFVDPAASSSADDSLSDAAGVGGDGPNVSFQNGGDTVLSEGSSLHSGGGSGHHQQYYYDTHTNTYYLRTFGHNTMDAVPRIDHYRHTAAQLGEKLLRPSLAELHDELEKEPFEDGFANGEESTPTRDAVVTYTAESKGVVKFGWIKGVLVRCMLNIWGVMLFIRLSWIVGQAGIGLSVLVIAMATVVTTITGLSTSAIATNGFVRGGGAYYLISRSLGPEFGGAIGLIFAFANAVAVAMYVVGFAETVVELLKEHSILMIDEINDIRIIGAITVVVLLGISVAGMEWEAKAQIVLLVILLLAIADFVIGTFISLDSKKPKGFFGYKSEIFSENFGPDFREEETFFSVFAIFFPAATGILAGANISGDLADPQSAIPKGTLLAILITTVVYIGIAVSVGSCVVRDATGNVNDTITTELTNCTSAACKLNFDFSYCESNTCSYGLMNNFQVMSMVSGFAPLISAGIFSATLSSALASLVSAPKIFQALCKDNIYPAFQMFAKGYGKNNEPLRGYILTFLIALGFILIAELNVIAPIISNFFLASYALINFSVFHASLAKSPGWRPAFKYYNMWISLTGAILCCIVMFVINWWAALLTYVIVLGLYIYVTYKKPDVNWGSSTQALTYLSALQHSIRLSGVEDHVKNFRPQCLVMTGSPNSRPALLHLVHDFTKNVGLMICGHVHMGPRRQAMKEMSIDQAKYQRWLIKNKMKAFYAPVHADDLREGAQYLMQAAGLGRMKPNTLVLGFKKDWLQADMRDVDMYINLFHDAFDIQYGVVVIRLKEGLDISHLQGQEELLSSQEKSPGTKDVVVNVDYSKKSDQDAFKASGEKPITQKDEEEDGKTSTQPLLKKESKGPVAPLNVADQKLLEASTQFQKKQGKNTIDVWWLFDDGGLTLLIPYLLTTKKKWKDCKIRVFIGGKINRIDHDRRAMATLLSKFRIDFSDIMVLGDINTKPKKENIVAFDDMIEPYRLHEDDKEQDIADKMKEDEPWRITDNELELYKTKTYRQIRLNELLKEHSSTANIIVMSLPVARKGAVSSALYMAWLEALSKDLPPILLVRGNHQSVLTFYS", "experiment": "Na+K+Cl− cotransporter assay, 86Rb uptake in A7r5 cells", "type": "cell-based", "conditions": "10 minutes at 37° C.", "experimental": "Na^+K^+Cl^− co-transporter activity was measured in vitro in A7r5 cells by measuring their uptake of ^86Rb (0.2 μCi) in 10 minutes at 37° C. as detected by scintillation counting. See Chassande, et al. (1988) “The Na^+/K^+/Cl^− Cotransport in C6 glioma cells. Properties and role in volume regulation.” Eur. J. Biochem. 171: 425433."}, "[3]": {"biological_target": "T2, α1β3γ2 GABAA receptor isoform (Homo sapiens, UniProt P14867+P18507+P28472)", "T2 construct": "expressed in transfected cells; host or cells: HEK-293T, transient transfection", "T2 sequence (P14867 28-456)": "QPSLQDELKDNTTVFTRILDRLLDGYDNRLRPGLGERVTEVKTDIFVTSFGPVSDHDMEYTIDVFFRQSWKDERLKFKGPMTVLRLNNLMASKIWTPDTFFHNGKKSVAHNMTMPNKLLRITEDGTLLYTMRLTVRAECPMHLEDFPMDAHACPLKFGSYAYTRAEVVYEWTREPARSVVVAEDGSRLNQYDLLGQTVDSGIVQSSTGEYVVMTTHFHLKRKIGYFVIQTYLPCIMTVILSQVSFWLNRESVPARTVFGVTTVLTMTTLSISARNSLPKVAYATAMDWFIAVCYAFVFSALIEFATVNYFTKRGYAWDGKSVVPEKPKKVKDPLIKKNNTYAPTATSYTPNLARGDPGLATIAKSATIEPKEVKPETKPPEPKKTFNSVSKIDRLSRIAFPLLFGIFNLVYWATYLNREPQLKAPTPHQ", "T2 sequence (P28472 26-473)": "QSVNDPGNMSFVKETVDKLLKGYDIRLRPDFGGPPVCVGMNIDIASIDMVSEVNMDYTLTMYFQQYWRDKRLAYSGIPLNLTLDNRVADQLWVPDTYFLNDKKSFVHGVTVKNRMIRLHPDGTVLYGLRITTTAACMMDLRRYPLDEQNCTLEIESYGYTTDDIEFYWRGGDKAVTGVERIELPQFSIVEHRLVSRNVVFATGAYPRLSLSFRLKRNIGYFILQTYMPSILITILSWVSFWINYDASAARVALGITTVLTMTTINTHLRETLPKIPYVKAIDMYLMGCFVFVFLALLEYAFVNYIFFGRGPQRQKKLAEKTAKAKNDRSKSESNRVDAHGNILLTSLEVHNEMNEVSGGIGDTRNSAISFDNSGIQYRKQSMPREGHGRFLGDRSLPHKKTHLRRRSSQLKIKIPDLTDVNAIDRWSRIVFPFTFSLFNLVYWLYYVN", "T2 sequence (P18507 40-475)": "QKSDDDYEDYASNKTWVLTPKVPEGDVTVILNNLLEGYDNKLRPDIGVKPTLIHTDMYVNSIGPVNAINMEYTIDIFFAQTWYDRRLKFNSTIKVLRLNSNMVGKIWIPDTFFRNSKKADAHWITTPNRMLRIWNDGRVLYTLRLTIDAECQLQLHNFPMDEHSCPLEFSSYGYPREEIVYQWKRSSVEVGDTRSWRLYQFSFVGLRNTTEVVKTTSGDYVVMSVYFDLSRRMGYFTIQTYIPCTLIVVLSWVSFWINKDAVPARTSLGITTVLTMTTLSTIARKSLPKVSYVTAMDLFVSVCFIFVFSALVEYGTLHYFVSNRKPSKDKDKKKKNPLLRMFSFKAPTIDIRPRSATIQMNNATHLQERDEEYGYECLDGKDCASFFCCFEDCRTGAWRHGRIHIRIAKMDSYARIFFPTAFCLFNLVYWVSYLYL", "experiment": "Whole-cell patch clamp, transfected HEK-293T cells", "type": "cell-based, rat or human", "conditions": "FIG. 36", "experimental": "The addition of GABA to […] activates the recombinant expressed GABAA receptors, creating an ion movement through the ion channel in the GABAA receptor. The electrical current generated by the movement of chloride ions into the cells can be quantified.\nHEK-293T cells were transiently transfected with rat or human GABAA receptor subunits. Whole-cell patch clamp recording was performed at −50 mV unless otherwise indicated. Test compounds was diluted from a freshly made stock in DMSO, GABA was prepared from a frozen stock. For each experiment GABA or GABA+a test compound was applied for 5 seconds, and the electrical current generated by the movement of chloride ions into the cells was measured and recorded as a trace of current versus time.\nCompounds described herein (e.g., NTP-2014) were tested at high and low GABA concentrations against multiple GABAA receptor isoforms (e.g., α1β3γ2, α2β3 γ2, α3β3γ2, α3β3γ2, α4β3γ2, α5β3γ2, α6β3γ2). […] NTP-2014 inhibits the currents in the parasynaptic α4 GABAA receptor isoform in GABAergic interneurons. […]"}}, "note": "“And” between values parts separate entries of the source, which are not always exact repeats. Equal entries are not always repeated.", "data": [{"smiles": "CCCCNc1cc(C(=O)OCC(=O)N(CC)CC)cc(S(N)(=O)=O)c1Oc1ccccc1", "note": "[NTP-2006, N,N-Diethylaminocarbonylmethyl 3-Aminosulfonyl-5-butylamino-4-phenoxybenzoate]", "values": [{"measurement": "Licking Score % Pain Decrease", "setting": "Male Rj: NMRI mice; 50 μmol/kg i.p.", "value": 40.0, "unit": "%"}, {"measurement": "Licking Score % Pain Decrease", "setting": "Male Rj: NMRI mice; 250 μmol/kg i.p.", "value": 61, "unit": "%"}, {"measurement": "Licking Score % Pain Decrease", "setting": "Male Rj: NMRI mice; 500 μmol/kg i.p.", "value": 60, "unit": "%"}, {"measurement": "Anti-inflammatory and analgesic effects in formalin paw test (FIG. 16)", "setting": "Male Rj: NMRI mice; 50, 250, 500 μmole/kg", "value": "show anti-inflammatory and analgesic effects"}, {"measurement": "Licking Score (15 to 50 minutes post-formalin injection) % Change from Control", "setting": "Male Rj: NMRI mice; i.p. 30 minutes before the test, 50 μmol/kg (NTP-2006 23.9, NTP-2024 21.7, NTP-1007 19.3, NTP-2014 21, NTP-2026 23.1 mg/kg)", "value": "−40", "unit": "%"}, {"measurement": "Licking Score (15 to 50 minutes post-formalin injection) % Change from Control", "setting": "Male Rj: NMRI mice; i.p., 250 μmol/kg (NTP-2006 119, NTP-2024 108, NTP-1007 96.5, NTP-2014 105, NTP-2026 116 mg/kg)", "value": "−61", "unit": "%"}, {"measurement": "Licking Score (15 to 50 minutes post-formalin injection) % Change from Control", "setting": "Male Rj: NMRI mice; i.p., 500 μmol/kg (NTP-2006 239, NTP-2024 217, NTP-1007 193, NTP-2014 210, NTP-2026 231 mg/kg)", "value": "−60", "unit": "%"}, {"measurement": "Cumulative duration of hippocampal discharges", "setting": "adult mice (C57/B16)", "value": "decreased"}, {"measurement": "Number of hippocampal discharges", "setting": "adult mice (C57/B16)", "value": "decreased"}, {"measurement": "Concentration of NTP-2006 in rat brain", "setting": "[1]; 15 m", "value": "5.259 ng/mL and 2.937 ng/mL"}, {"measurement": "Concentration of NTP-2006 in rat brain", "setting": "[1]; 6 h", "value": "1.523 ng/mL and 1.572 ng/mL"}, {"measurement": "concentration at 15 min", "setting": "[1]; rat, brain, intraperitoneal, 100 mg/kg, 15 m", "value": 2.95, "unit": "ng/mL"}, {"measurement": "concentration at 6 h", "setting": "[1]; rat, brain, intraperitoneal, 100 mg/kg, 6 h", "value": 1.88, "unit": "ng/mL"}, {"measurement": "Concentration of NTP-2006 in rat blood", "setting": "[2]; NTP-2006 100 mg/kg IP, PBx pretreated, 15 m", "value": "2.008 ng/mL and 1.728 ng/mL"}, {"measurement": "Concentration of NTP-2006 in rat blood", "setting": "[2]; NTP-2006 100 mg/kg IP, PBx pretreated, 1 h", "value": "BLQ (Below Limit of Quantitation (<1 ng/ml))"}, {"measurement": "Concentration of NTP-2006 in rat blood", "setting": "[2]; NTP-2006 100 mg/kg IP, PBx pretreated, 2 h", "value": "BLQ (Below Limit of Quantitation (<1 ng/ml))"}, {"measurement": "Concentration of NTP-2006 in rat blood", "setting": "[2]; NTP-2006 100 mg/kg IP, PBx pretreated, 4 h", "value": "BLQ (Below Limit of Quantitation (<1 ng/ml))"}, {"measurement": "Concentration of NTP-2006 in rat blood", "setting": "[2]; NTP-2006 100 mg/kg IP, PBx pretreated, 6 h", "value": "BLQ (Below Limit of Quantitation (<1 ng/ml))"}, {"measurement": "Degradation to bumetanide in the blood", "setting": "[2]; i.p., rats", "value": "degrades into bumetanide"}, {"measurement": "concentration at 15 min", "setting": "[2]; rat, whole blood, intraperitoneal, 100 mg/kg, NTP-2006 100 mg/kg IP, PBx pretreated, 15 m", "value": 3.32, "unit": "ng/mL"}, {"measurement": "concentration at 30 min", "setting": "[2]; rat, whole blood, intraperitoneal, 100 mg/kg, NTP-2006 100 mg/kg IP, PBx pretreated, 30 m", "value": 3.35, "unit": "ng/mL"}, {"measurement": "inhibition at 10 µM", "setting": "Na+K+Cl− co-transporter; read-out: % Inhibition of Control Values", "value": 50, "unit": "%"}, {"measurement": "remaining activity at 10 µM", "setting": "Na+K+Cl− co-transporter; read-out: % of Control Value", "value": 49.6, "unit": "%"}]}, {"smiles": "CN1C(=O)CC(=O)N(c2ccccc2)c2cc(Cl)ccc21", "note": "[clobazam]", "values": [{"measurement": "Effect on inhibitory currents in α1 subunit containing GABAA receptors", "setting": "[3]", "value": "increase both the amplitude and time course of inhibitory currents"}]}, {"smiles": "CN1C(=O)CN=C(c2ccccc2)c2cc(Cl)ccc21", "note": "[diazepam]", "values": [{"measurement": "Effect on inhibitory currents in α1 subunit containing GABAA receptors", "setting": "[3]", "value": "increase both the amplitude and time course of inhibitory currents"}]}, {"smiles": "Cc1ccc(-c2nc3ccc(C)cn3c2CC(=O)N(C)C)cc1", "note": "[zolpidem]", "values": [{"measurement": "Effect on inhibitory currents in α1 subunit containing GABAA receptors", "setting": "[3]", "value": "increase both the amplitude and time course of inhibitory currents"}]}]}
